The test system of the assay is SARS-CoV-2. The experiment in a line: microbe, parasite or virus in culture. In kind it is cell-based.

Values joined by “and” are separate entries in the source; they are usually repeats but may differ in a detail not shown here. Equal entries are not always repeated.

One may read the EC50 as the midpoint of the concentration-response curve. In the case of `O=c1ccn([C@@H]2O[C@H](CO)[C@@H](O)[C@H]2O)c(=S)[nH]1` [s2U, 2-thiouridine], the EC50 is 2 µM and 2.2 µM and 1.8 µM and 2.9 µM and 1.9 µM and 2.5 µM.

Values taken from PMC10589713 (Proceedings of the National Academy of Sciences of the …, 2023).
